Tests used:
[1] = PAMPA artificial lipid membrane permeability; assay type: in vitro ADME; conditions: pH 7.4, 4 hours incubation, GIT lipid; for Papp at 4 h, 50 µM: PAMPA
Protocol: The PAMPA assay (pION, Inc., Woburn Mass.) was used to determine the ability of compounds of the invention to cross an artificial lipid membrane by passive diffusion. Test compounds were dissolved in DMSO (10 mM) and diluted 200-fold in buffer (pION Inc., pH 7.4) to provide 50 uM stock solutions. Buffer (150 μL) was added to a UV blank plate and stock solutions (150 μL) were transferred to a UV reference plate. The blank and reference spectrum were read using a spectrophotometer. Stock solutions (200 μL) were added to the donor plate of the PAMPA sandwich plate and an accept plate painted with GIT lipid (pION Inc, 5 μL) was placed on top. Buffer (200 μL) was added to the acceptor plate and the PAMPA sandwich plate was incubated for 4 hours. Aliquots (150 μL) from the acceptor plate were added to a UV plate and read as acceptor spectrum. Aliquots (150 μL) of the donor solutions were added to a UV analysis plate and read as donor spectrum. The permeability coefficient of test compounds was calculated using PAMPA Explorer™ software (version 3.5.0.4) based on the AUC of the reference plate, the donor plate, and the acceptor plate.

NaV1.7 [2] = molecular target: T1, NaV1.7 (Homo sapiens, UniProt Q15858); assay: Nav1.7 intracellular inhibition, whole cell patch clamp (internal block); assay type: cell-based; conditions: compound in internal solution; for inhibition at 10 µM: test concentration of 10 μM
T1 construct: expressed in transfected cells; host or cells: Tetracycline-inducible cell line kept under hygromycin and blasticidin selection
Protocol: (§1) NaV1.7 was expressed upon induction with tetracycline. Cells were cultured in DMEM containing 10% dialyzed Fetal Bovine Serum (VWR, Radnor, Pa.), 1% Glutamax (VWR, Radnor, Pa.), 1% Penicillin-Streptomycin (VWR, Radnor, Pa.), 100 mg/L Hygromycin (Thermo Fisher Scientific, Waltham, Mass. and 5 mg/L Blasticidin (Alfa Aesar, Haverhill MAI Cells were grown and maintained at 37° C. in a humidified environment containing 10% CO2 in air. Cells were detached from the culture flask for passage and harvested using 0.05% Trypsin-EDTA (Thermo Fisher Scientific, Waltham, Mass.). To induce NaV1.7, cells were induced with tetracycline (0.1-1 μg/mL, IBI Scientific, Peosta, Iowa) the day before recording and plated onto 24-well plates. Cells were washed with DPBS (VWR, Radnor, Pa.), trypsinized and then triturated five times in 10 mL of growth media to break apart cell aggregates. For one 24-well plate, 2 mL of cell suspension was mixed with 23 mL of fresh growth media and 0.1-1 μg/mL tetracycline added. 1 ml of mixed media with cells was then added to each well of a 24-well plate, with a 12 mm coverslip already placed in the bottom of the well. Cells were then incubated in 37° C. and 10% CO2 overnight.
(§2) The intracellular solution contained the following (in mM) CsCl 135, NaCl 10, […], HEPES 10, MgCl2 2, adjusted to pH 7.2 with CsOH. The external solution was a normal Ringer solution containing (in mM) NaCl 155, HEPES 10, glucose 10, KCl 3.5, CaCl2 1.5, MgCl2 1 adjusted to pH 7.4 with NaOH. CsCl was from Alfa Aesar, Haverhill Mass. All other chemicals were from Sigma-Aldrich, St. Louis. Mo. In order to test the degree of internal block by test compounds the compounds were dissolved in internal solution at the indicated test concentration. […] In order to test the degree of external block by test compounds the compounds were dissolved in external solution at the indicated test concentration.
(§3) 18-24 hours after cells were induced with tetracycline, coverslips placed into a chamber filled with Normal Ringer solution at room temperature and the chamber placed on a microscope. Pipettes were pulled from borosilicate glass on a P97 puller (Sutter Instrument, Novato, Calif.) and polished with a MF-830 Microforge (Narishige International USA, Inc, Amityville, N.Y.) to have a resistance of 1.5-2.5 MΩ when filled with CsCl internal solution at room temperature. Healthy cells (those that are round and translucent with no visible blemishes) were chosen for seal formation. A seal was formed between the pipette and the cell, and a brief pulse of suction used to “break in” and establish the whole-cell configuration. The membrane potential was held at −100 mV before the voltage protocol began. Only cells with series resistance between 1.5-5 M were retained for analysis. The voltage protocol was as follows: Cells were held at −100 mV for 12 ms followed by a hyperpolarizing step to −105 mV for 12 ms to monitor the leak. Cells were then stepped back to −100 mV for 40 ms. Cells were then depolarized to −20 mV for 10 ms and returned to −100 mV for 26 ms.
(§4) Once the recording was started, the voltage protocol was run at 30 second intervals for 5 minutes to get a stable baseline. This was followed by four 30-second periods of 5 Hz stimulation of the same voltage protocol separated by 1 minute of rest which was then followed by 0.33 Hz stimulation after the last train. Currents were recorded using PatchMaster software with Heka EPC10 (HEKA Electronics, Lambrecht, Germany). Only cells with inward current amplitudes at −20 mV between 400 pA and 4 nA were accepted. In addition, cells having leak currents greater than 10% of their current amplitudes were discarded.
(§5) The data was plotted using the Patchmaster software (HEKA Electronics, Lambrecht, Germany) and analyzed by plotting the minimum current during the voltage step to −20 mV (peak inward current) as a function of time. […]

NaV1.7 [3] = molecular target: T1, NaV1.7; assay: Nav1.7 extracellular inhibition, whole cell patch clamp (external block); assay type: cell-based; conditions: compound in external solution; for inhibition at 10 µM: read-out: Nav1.7 extracellular inhibition, extracellular inhibition, read-out: Nav1.7 Intracellular Inhibition; for inhibition at 30 µM: test concentration of 30 μM
Protocol: as §1, §2, §3
as §4, with “by” for “by four 30-second periods of”, “run until the end” for “separated by 1 minute”, “experiment. […] The test compound” for “rest which”, “added for 5 minutes before washing out with normal Ringer's solution.” for “then followed by 0.33 Hz stimulation after the last train.”
as §5, with “time. To determine the % block produced by test compounds applied externally the following was done.” for “time.”

T1 sequence (Q15858 whole entry): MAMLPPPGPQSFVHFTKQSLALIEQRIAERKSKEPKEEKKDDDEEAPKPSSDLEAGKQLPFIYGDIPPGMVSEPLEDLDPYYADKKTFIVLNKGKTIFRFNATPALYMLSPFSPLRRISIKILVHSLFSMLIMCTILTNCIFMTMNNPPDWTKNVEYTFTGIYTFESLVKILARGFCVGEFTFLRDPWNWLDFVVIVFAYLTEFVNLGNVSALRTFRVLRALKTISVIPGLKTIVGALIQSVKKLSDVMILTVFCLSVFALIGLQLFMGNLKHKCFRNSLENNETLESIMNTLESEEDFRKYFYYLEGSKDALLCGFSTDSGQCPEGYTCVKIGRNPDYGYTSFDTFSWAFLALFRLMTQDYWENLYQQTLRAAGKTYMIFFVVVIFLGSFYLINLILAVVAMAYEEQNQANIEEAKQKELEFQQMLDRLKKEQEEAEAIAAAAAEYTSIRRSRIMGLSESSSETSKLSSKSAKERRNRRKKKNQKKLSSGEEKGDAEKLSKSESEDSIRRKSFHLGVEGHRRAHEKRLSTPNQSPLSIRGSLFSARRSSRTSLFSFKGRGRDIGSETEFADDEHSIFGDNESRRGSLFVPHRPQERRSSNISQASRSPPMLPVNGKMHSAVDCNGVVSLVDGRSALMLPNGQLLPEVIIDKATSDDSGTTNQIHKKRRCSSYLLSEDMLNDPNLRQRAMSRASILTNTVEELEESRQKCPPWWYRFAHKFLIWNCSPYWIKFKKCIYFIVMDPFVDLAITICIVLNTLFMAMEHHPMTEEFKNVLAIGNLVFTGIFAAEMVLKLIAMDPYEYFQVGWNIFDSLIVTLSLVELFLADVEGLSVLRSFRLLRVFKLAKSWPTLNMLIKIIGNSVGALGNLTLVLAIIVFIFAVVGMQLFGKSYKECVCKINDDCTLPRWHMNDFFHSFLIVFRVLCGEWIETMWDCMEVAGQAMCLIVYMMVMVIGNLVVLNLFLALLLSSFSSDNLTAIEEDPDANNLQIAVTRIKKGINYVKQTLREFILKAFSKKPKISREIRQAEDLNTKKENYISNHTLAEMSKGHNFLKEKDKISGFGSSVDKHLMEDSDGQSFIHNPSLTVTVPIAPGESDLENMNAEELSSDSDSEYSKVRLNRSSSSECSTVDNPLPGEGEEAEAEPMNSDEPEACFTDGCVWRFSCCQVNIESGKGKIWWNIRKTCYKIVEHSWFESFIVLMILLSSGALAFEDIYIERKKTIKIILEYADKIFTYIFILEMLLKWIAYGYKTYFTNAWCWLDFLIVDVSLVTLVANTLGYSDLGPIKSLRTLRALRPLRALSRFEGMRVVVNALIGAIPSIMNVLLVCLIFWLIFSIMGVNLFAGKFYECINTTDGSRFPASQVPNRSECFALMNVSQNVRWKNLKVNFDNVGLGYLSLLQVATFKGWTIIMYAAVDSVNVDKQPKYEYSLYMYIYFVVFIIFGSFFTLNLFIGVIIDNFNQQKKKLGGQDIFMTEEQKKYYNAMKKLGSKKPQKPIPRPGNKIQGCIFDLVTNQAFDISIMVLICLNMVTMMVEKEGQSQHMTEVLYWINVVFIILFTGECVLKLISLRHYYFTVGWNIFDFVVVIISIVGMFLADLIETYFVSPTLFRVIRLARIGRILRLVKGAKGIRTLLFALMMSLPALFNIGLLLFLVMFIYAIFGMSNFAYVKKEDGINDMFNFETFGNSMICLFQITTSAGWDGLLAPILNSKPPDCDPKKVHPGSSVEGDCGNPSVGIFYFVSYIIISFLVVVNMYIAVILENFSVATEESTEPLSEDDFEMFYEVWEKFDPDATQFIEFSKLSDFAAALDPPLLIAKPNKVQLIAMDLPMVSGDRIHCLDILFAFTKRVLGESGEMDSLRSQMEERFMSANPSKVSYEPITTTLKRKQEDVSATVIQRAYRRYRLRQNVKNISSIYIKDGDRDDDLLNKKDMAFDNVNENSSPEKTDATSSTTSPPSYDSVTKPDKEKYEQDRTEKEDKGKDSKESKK

| Papp at 4 h, 50 µM [1] [×10⁻⁶ cm/s] | PAMPA (10^−6cm/s) [1] | inhibition at 3 µM (NaV1.7 [2]) [%] | inhibition at 10 µM (NaV1.7 [2]) [%] | inhibition at 10 µM (NaV1.7 [3]) [%] | inhibition at 30 µM (NaV1.7 [3]) [%] | Structure (SMILES) |
| --- | --- | --- | --- | --- | --- | --- |
| < 1 | + ((<0.1 10^−6 cm/s)) | 40 to 70 | > 70 | < 40 | < 30 | COC(=O)c1scc(C)c1NC(=O)C[n+]1cccn1C1CCCCC1 [Compound 22] |
| – | + ((<0.1 10^−6 cm/s)) | 70 to 90 | – | 40 to 70 | – | Cc1csc(C(=O)OC(C)(C)C)c1NC(=O)C[n+]1cccc(-c2ccccc2)c1.[Br-] [A] |
| – | + ((<0.1 10^−6 cm/s)) | > 90 | – | < 40 | – | CCCOC(=O)c1scc(C)c1NC(=O)C[n+]1cccn1C1CCCCC1.[Br-] [B] |
| < 1 | + ((<0.1 10^−6 cm/s)) | 40 to 70 | > 70 | < 40 | < 30 | COC(=O)c1scc(C)c1NC(=O)C[n+]1cccc(-c2ccccc2)c1 [Compound 23] |
| – | + ((<0.1 10^−6 cm/s)) | 70 to 90 | – | < 40 | – | CCOC(=O)c1scc(C)c1NC(=O)C[n+]1cccn1C1CCCCC1 [C] |
| – | + ((<0.1 10^−6 cm/s)) | 70 to 90 | – | < 40 | – | Cc1cccc(C(=O)OC(C)(C)C)c1NC(=O)C[n+]1cccn1C1CCCCC1.[Br-] [D] |
